Entries after “also recorded” stand apart in the source; their conditions may differ. Where two headings read alike, the source gives them in different places.
How the values were obtained:
[1] = target: NS3-NS5 interaction (NS3 f.l. binding to coated 6His-NS5_270–900) (Dengue virus type 2, UniProt P14340); assay: ELISA-based NS3-NS5 interaction assay; parameters: species or system DENV-2; conditions: for inhibition at 100 µM: fixed concentration of 100 μM, compared with DMSO control; for IC50: read-out: In vitro activity IC50
Procedure: Nunc Maxisorp microplates (Thermo Fisher Scientific) were coated with 400 ng/well of 6His-NS5_270–900, or GST protein as a control, in PBS for 3 h at 37 °C and then blocked with 5% (wt/v) bovine serum albumin (BSA, Merck Life Science) in PBS overnight at 4 °C. Blocked wells were incubated at room temperature (RT) for 2 h with increasing amounts of NS3 f.l. or GST–NS3_172–618. 6His-NS5_270–900-coated plates were also incubated with increasing concentration of GST, as a control. After washing with PBS containing 0.3% Tween 20 (Fisher Scientific, Waltham, MA, United States), the NS3-NS5 interaction was detected by incubating the plates with the anti-NS3 monoclonal antibody (GT2811 clone, Genetex, Irvine, CA, United States) diluted 1:6,000 in PBS + 2% (v/v) FBS (Thermo Fisher Scientific) for 1 h at RT. The unbound primary antibody was removed by further washes with PBS + 0.3% Tween 20 and the secondary goat anti-mouse HRP-conjugated antibody (GenScript Biotech) at a dilution of 1:8,000 in PBS + 2% FBS was then added. After incubation for 1 h at RT and following washes, the colorimetric substrate 3,3′,5,5′-tetramethylbenzidine (TMB, SeraCare Life Sciences, Milford, MA, United States) was added to each well and absorbance was read at 450 nm by an ELISA plate reader (Tecan Infinite 200 PRO, Mannedorf, Switzerland).
To test the inhibitory effect of compounds on NS3-NS5 interaction, 6His-NS5_270–900-coated wells were incubated with a fixed amount of NS3 f.l. (200 ng) along with increasing concentrations of test compounds or DMSO as a control. To exclude non-specific inhibition of compounds due to colloidal aggregation, the inhibitory activities of compounds were tested in the presence or the absence of 0.002% Triton X-100 (Fisher Scientific), a condition which reverses and prevents the colloidal formation of organic molecules ([McGovern et al., 2003]). All the compound concentrations were tested at least in duplicate.

MTT cytotoxicity assay = conditions: African green monkey, Vero cells
DENV-2 NGC strain = assay: Plaque reduction assay (PRA) in Vero cells; type: cell-based; conditions: for EC50: PRA in Vero cells, read-out: Antiviral activity EC50; for SI (selectivity index): ratio between CC50 and EC50
Vero cells [2] = tested on: Vero cells
Vero cells [3] = assay: MTT cytotoxicity assay; conditions: read-out: Cytotoxicity CC50; best analogues of hit 3, in-house synthesized hit 3 as control; MTT in Vero cells at 72 h
DENV-2 (NGC strain) = assay: Viral RNA reduction assay (RT-qPCR) in Vero cells; type: cell-based; conditions: DENV-2, Vero cells, RT-qPCR at 72 h p.i.
Procedure: (§1) For viral RNA reduction assays with DENV serotypes 1 to 4, Vero cells were seeded at a density of 1 × 10^5 cells per well in 24-well plates. The next day, cells were infected at 37 °C with the different viruses in serum-free DMEM at the multiplicity of infection (MOI) of 0.001 and plates were rocked every 15 min. At the end of incubation, the viral inoculum was removed, and medium with 2% FBS containing various concentrations of test compounds was added. Viral RNA was isolated from the culture supernatant at 72 h p.i., using the PureLink Viral RNA/DNA Mini kit (Invitrogen, Waltham, MA, United States), according to the manufacturer’s instructions. Viral RNA was quantified using the One-Step RT-PCR kit Dengue Virus subtypes 1, 2, 3 and 4 PCRmax (Cole Parmer Instrument, Saint Neots, United Kingdom), according to the manufacturer’s instructions, on a 7,000 Real-time PCR platform (Applied Biosystems, Waltham, MA, United States).

DENV-3 (H-87 strain) = assay: Viral RNA reduction assay (RT-qPCR) in Vero cells; type: cell-based; conditions: DENV-3, Vero cells, RT-qPCR at 72 h p.i.
Procedure: as §1

DENV-4 (H-241 strain) = assay: Viral RNA reduction assay (RT-qPCR) in Vero cells; type: cell-based; conditions: DENV-4, Vero cells, RT-qPCR at 72 h p.i.
Procedure: as §1

DENV-1 (TH-Sman strain) = assay: Viral RNA reduction assay (RT-qPCR) in Vero cells; type: cell-based; conditions: DENV-1, Vero cells, RT-qPCR at 72 h p.i.
Procedure: as §1

[4] = target: NS5-RdRp (NHS-NS5_270–900) (Dengue virus type 2, UniProt P14340); assay: Microscale thermophoresis (MST) binding to labeled NS5-RdRp; parameters: species or system DENV-2; conditions: medium MST power, 40% LED power
From the text: (§2) To obtain the purified helicase portion of NS3 (6His-NS3_177–618) and the main protease of SARS-CoV-2 (6His-M^pro) used for the MST analysis, we followed previously described protocols ([Celegato et al., 2023]; [Mercorelli et al., 2022]). The 6His–NS5 RdRp270–900 protein was expressed and purified as described above. For MST studies, 6His-NS5_270–900, 6His-NS3_177–618, and 6His-M^pro were fluorescently labeled using NanoTemper Protein labeling kit RED-NHS 2nd generation (MO-L011, NanoTemper Technologies GmbH, Munich, Germany). Protein and dye concentrations were determined by absorption spectroscopy using NanoDrop™ One spectrophotometer (ThermoFisher Scientific), considering, at 280 nm, ε = 171,350 M^–1cm^1 for recombinant NS5, ε = 66,140 M^–1cm^1 for NS3, ε = 32,890 M^–1cm^1 for M^pro, respectively. The ε = 195,000 M^1cm^1 at 650 nm was considered for the RED-NHS fluorophore, with a correction factor of 0.04. The degree of labeling (DOL) was calculated according to the manufacturer’s instructions, yielding a value of 0.63 for NHS-NS5, 0.98 for NHS-NS3, and 0.60 for NHS-M^pro, respectively. […] In all experiments, signal quality was monitored by the Monolith device to detect possible ligand auto-fluorescence, aggregation, or target protein adsorption to capillaries. Experiments were performed in triplicates and analyzed with the MO. […]

[5] = target: NS3-hel (NHS-NS3_177–618) (Dengue virus type 2, UniProt P14340); assay: Microscale thermophoresis (MST) binding to labeled NS3-hel; parameters: species or system DENV-2; conditions: same test concentrations (serial dilutions from 250 μM), 60% LED power
From the text: as §2

SARS-CoV-2 M^pro = SARS-CoV-2 M^pro (Severe acute respiratory syndrome coronavirus 2, UniProt P0DTD1); conditions: MST binding check, up to 125 μM compound concentration
[6] = selected hits, concentration that decreased the NS3-NS5 binding by 50% in ELISA
[7] = Dengue virus, DENV2, Vero, selected hits, 50% inhibition of viral plaque formation, DENV-2
[8] = best analogues of hit 3, in-house synthesized hit 3 as control, NGC strain

Structure (SMILES)	inhibition at 100 µM [1] [%]	IC50 [1, 6] [µM]	CC50 at 72 h (MTT cytotoxicity assay) [µM]	EC50 (DENV-2 NGC strain; [7]) [µM]	SI (selectivity index) (DENV-2 NGC strain; selected hits)	also measured
N=c1c2cnn(-c3ccccc3)c2ncn1NC(=S)Nc1ccccc1 [Hit 15]	≥ 50	123 ± 16	> 250	> 100	>3	
Cc1ccc(NC(=S)NNC(=O)c2ccc(C(C)(C)C)cc2)cc1 [Compound 72]						CC50 (Vero cells [2]): 211 ± 20 µM; EC50 (DENV-2 NGC strain; [8]): 2.8 ± 1.9 µM
O=C(NCc1nc2ccccc2[nH]1)c1ccc2[nH]nnc2c1 [Hit 1]	≥ 50	85.9 ± 14.5	> 250	> 100	>3	
Cc1nc(NC(=O)c2ccc(C(N)=O)cc2)sc1SCC#N [Hit 6]	≥ 50	51.4 ± 10.3	> 250	98.8 ± 10.4	>3	
O=C(CCc1ccccn1)Nc1ccc2[nH]nnc2c1 [Hit 44]	≥ 50	78.5 ± 16.4	> 100	97.4 ± 12.6	>1	
Cc1ccc(NC(=S)NNC(=O)c2ccccn2)cc1 [Compound 64]						CC50 (Vero cells [3]): 39.6 ± 10.2 µM; EC50 (DENV-2 NGC strain; [8]): 2.1 ± 1.6 µM
Cc1ccc(C(=O)Nc2cc(-c3cccc(F)c3F)n[nH]2)c(=O)[nH]1 [Hit 4]	≥ 50	18.7 ± 2.1	12.7 ± 4	> 10	1	
NC(=O)COc1ccc(CNC(=O)Nc2ccc(Cl)cc2)cc1 [Hit 29]	≥ 50	142 ± 26	35.7 ± 4.9	34.3 ± 9.4	1	
N#Cc1nc2c(-c3nc4ccccc4[nH]3)c(N)n(Cc3ccco3)c2nc1C#N [Hit 47]	≥ 50	16.9 ± 2.5	> 250	53.5 ± 6.9	>5	
N#Cc1cn[nH]c1NCc1ccc(OCc2ccccc2)cc1O [Hit 50]	≥ 50	32 ± 6.7	> 250	13.4 ± 1.8	>19	
Cc1ccc(NC(=S)NNC(=O)c2ccccc2O)cc1 [Hit 3]	≥ 50	15.6 ± 4.5	> 250	1.93	>130	IC50 ([1]; analogues of hit 3, in-house synthesized hit 3 as control, 50% inhibition of NS3-NS5 binding in ELISA): 19.4 ± 7.8 µM; CC50 (Vero cells [3]): > 250 µM; viral RNA synthesis (DENV-2 (NGC strain)): concentration-dependent reduction in viral RNA synthesis; viral RNA synthesis (DENV-3 (H-87 strain)): concentration-dependent reduction in viral RNA synthesis; viral RNA synthesis (DENV-4 (H-241 strain)): concentration-dependent reduction in viral RNA synthesis; viral RNA synthesis (DENV-1 (TH-Sman strain)): concentration-dependent reduction in viral RNA synthesis; Kd [4]: 28.8 ± 4.5 µM; EC50 (DENV-2 NGC strain; Dengue virus, DENV2, Vero, best analogues of hit 3, in-house synthesized hit 3 as control, NGC strain): 1.8 ± 0.6 µM; SI (selectivity index) (DENV-2 NGC strain; best analogues of hit 3): >130; EC50 (DENV-2 NGC strain; selected hits, 50% inhibition of viral plaque formation, DENV-2): 1.9 ± 0.3 µM; binding to NS3-hel [5]: not able to detect the binding; also recorded: no binding was observed; binding to SARS-CoV-2 M^pro (SARS-CoV-2 M^pro): No binding was detected
CN(C)c1ccc(NC(=S)NNC(=O)c2ccccn2)cc1 [Compound 69]						CC50 (Vero cells [2]): 72 ± 17.2 µM; fold lower IC50 than hit 3 ([1]; IC50 of 1.0 μM versus 15.6 μM): 15 fold; EC50 (DENV-2 NGC strain; [8]): 12.4 ± 5.8 µM
O=C(NCc1ncc(-c2ccccc2)[nH]1)Nc1ccncc1F [Hit 30]	≥ 50	44.6 ± 8.1	> 250	24.6 ± 5.9		

Source: paper PMC12615485, “New dengue virus inhibitors targeting NS3-NS5 interaction identified by in silico screening” (Frontiers in Microbiology, 2025)
